Source: PubChem BioAssay AID248 (DTP/NCI, 2004)
Toxic doses and inconclusive results are not listed. Rule as the data show it: active = T/C of 150% or more; inactive = T/C below 125%.

Tested on: L1210 leukemia ip in BDF1 mice, survival T/C
Test: NCI In Vivo Anticancer Drug Screen. Data for tumor model L1210 Leukemia (intraperitoneal) in B6D2F1 (BDF1) mice
Conditions: higher = longer survival
In short: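 Mice bearing the transplanted tumor received compound or vehicle. Survival of the treated group was divided by that of the vehicle-treated control group to give the ratio.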

[1] = endpoint: mean survival time, dose: 10.0 mg/kg/injection, schedule: Q01DX001 (ip), vehicle: saline
[2] = endpoint: mean survival time, dose: 20.0 mg/kg/injection, schedule: Q01DX001 (ip), vehicle: saline
[3] = endpoint: mean survival time, dose: 100.0 mg/kg/injection, schedule: Q01DX001 (ip), vehicle: saline
[4] = endpoint: mean survival time, dose: 200.0 mg/kg/injection, schedule: Q01DX001 (ip), vehicle: saline
[5] = endpoint: mean survival time, dose: 100.0 mg/kg/injection, schedule: Q04DX002 (ip), vehicle: Klucel (hydroxypropylcellulose) (HPC)
[6] = endpoint: mean survival time, dose: 200.0 mg/kg/injection, schedule: Q04DX002 (ip), vehicle: Klucel (hydroxypropylcellulose) (HPC)

Measured: T/C

CC(=O)OC1(C)CC(C)C(=O)C(C(O)CC2CC(=O)NC(=O)C2)C1 (centres undefined)
inactive: endpoint: mean survival time, dose: 0.05 mg/kg/injection, schedule: Q01DX009 (ip), vehicle: saline with Tween-80 108 % of control | endpoint: mean survival time, dose: 0.06 mg/kg/injection, schedule: Q01DX009 (ip), vehicle: water 107 % of control | endpoint: mean survival time, dose: 0.1 mg/kg/injection, schedule: Q01DX009 (ip), vehicle: saline with Tween-80 114 % of control | endpoint: mean survival time, dose: 0.12 mg/kg/injection, schedule: Q01DX009 (ip), vehicle: saline 117 % of control | endpoint: mean survival time, dose: 0.15 mg/kg/injection, schedule: Q01DX009 (ip), vehicle: saline with Tween-80 91 % of control | endpoint: mean survival time, dose: 0.15 mg/kg/injection, schedule: Q01DX009 (ip), vehicle: saline 120 % of control | endpoint: mean survival time, dose: 0.2 mg/kg/injection, schedule: Q01DX009 (ip), vehicle: saline with Tween-80 120 % of control | endpoint: mean survival time, dose: 0.25 mg/kg/injection, schedule: Q01DX009 (ip), vehicle: saline 109 % of control | endpoint: mean survival time, dose: 0.3 mg/kg/injection, schedule: Q01DX009 (ip), vehicle: saline 118 % of control | endpoint: mean survival time, dose: 0.5 mg/kg/injection, schedule: Q01DX009 (ip), vehicle: saline 96 % of control | endpoint: mean survival time, dose: 0.5 mg/kg/injection, schedule: Q01DX009 (ip), vehicle: water 108 % of control | endpoint: mean survival time, dose: 0.5 mg/kg/injection, schedule: Q04DX003 (ip), vehicle: water 108 % of control | endpoint: mean survival time, dose: 1.0 mg/kg/injection, schedule: Q01DX009 (ip), vehicle: water 100 % of control | endpoint: mean survival time, dose: 1.0 mg/kg/injection, schedule: Q04DX003 (ip), vehicle: saline 115 % of control | endpoint: mean survival time, dose: 1.0 mg/kg/injection, schedule: Q04DX003 (ip), vehicle: water 109 % of control | endpoint: mean survival time, dose: 1.2 mg/kg/injection, schedule: Q01DX009 (ip), vehicle: saline 115 % of control | endpoint: mean survival time, dose: 2.0 mg/kg/injection, schedule: Q01DX001 (ip), vehicle: saline 102 % of control | endpoint: mean survival time, dose: 2.0 mg/kg/injection, schedule: Q04DX003 (ip), vehicle: saline 116 % of control | endpoint: mean survival time, dose: 2.0 mg/kg/injection, schedule: Q04DX003 (ip), vehicle: water 108 % of control | endpoint: mean survival time, dose: 2.0 mg/kg/injection, schedule: Q08DX002 (ip), vehicle: saline 102 % of control | endpoint: mean survival time, dose: 4.0 mg/kg/injection, schedule: Q01DX001 (ip), vehicle: saline 100 % of control | endpoint: mean survival time, dose: 4.0 mg/kg/injection, schedule: Q04DX003 (ip), vehicle: saline 114 % of control | endpoint: mean survival time, dose: 4.0 mg/kg/injection, schedule: Q04DX003 (ip), vehicle: water 100 % of control | endpoint: mean survival time, dose: 4.0 mg/kg/injection, schedule: Q08DX002 (ip), vehicle: saline 98 % of control | endpoint: mean survival time, dose: 8.0 mg/kg/injection, schedule: Q01DX001 (ip), vehicle: saline 109 % of control | endpoint: mean survival time, dose: 8.0 mg/kg/injection, schedule: Q08DX002 (ip), vehicle: saline 100 % of control | endpoint: mean survival time, dose: 62.5 micrograms/kg/injection, schedule: Q01DX009 (ip), vehicle: saline 115 % of control | endpoint: mean survival time, dose: 125.0 micrograms/kg/injection, schedule: Q01DX009 (ip), vehicle: saline 123 % of control | endpoint: mean survival time, dose: 125.0 micrograms/kg/injection, schedule: Q03HX008 (ip), vehicle: saline 104 % of control | endpoint: mean survival time, dose: 125.0 micrograms/kg/injection, schedule: Q03HX016 (ip), vehicle: saline 123 % of control | endpoint: mean survival time, dose: 250.0 micrograms/kg/injection, schedule: Q01DX009 (ip), vehicle: saline 101 % of control | endpoint: mean survival time, dose: 250.0 micrograms/kg/injection, schedule: Q03HX008 (ip), vehicle: saline 112 % of control | endpoint: median survival time, dose: 1.0 mg/kg/injection, schedule: Q04DX003 (ip), vehicle: saline 103 % of control | endpoint: median survival time, dose: 2.0 mg/kg/injection, schedule: Q04DX003 (ip), vehicle: saline 105 % of control | endpoint: median survival time, dose: 4.0 mg/kg/injection, schedule: Q04DX003 (ip), vehicle: saline 106 % of control | endpoint: median survival time, dose: 8.0 mg/kg/injection, schedule: Q04DX003 (ip), vehicle: saline 114 % of control

COC(=O)CC(Br)CBr (centres undefined)
inactive: endpoint: mean survival time, dose: 100.0 mg/kg/injection, schedule: Q01DX001 (ip), vehicle: carboxymethylcellulose (CMC) 100 % of control | endpoint: mean survival time, dose: 200.0 mg/kg/injection, schedule: Q01DX001 (ip), vehicle: carboxymethylcellulose (CMC) 100 % of control

CCC(C)C(N)C(=O)O (centres undefined)
inactive: endpoint: mean survival time, dose: 100.0 mg/kg/injection, schedule: Q04DX003 (ip), vehicle: Klucel (hydroxypropylcellulose) (HPC) 103 % of control | endpoint: mean survival time, dose: 200.0 mg/kg/injection, schedule: Q04DX003 (ip), vehicle: Klucel (hydroxypropylcellulose) (HPC) 106 % of control | endpoint: mean survival time, dose: 400.0 mg/kg/injection, schedule: Q04DX003 (ip), vehicle: Klucel (hydroxypropylcellulose) (HPC) 101 % of control

Cc1ccc(S(=O)(=O)OCC23CCC2(COS(=O)(=O)c2ccc(C)cc2)COC3)cc1 (centres undefined)
inactive: endpoint: mean survival time, dose: 75.0 mg/kg/injection, schedule: Q01DX001 (ip), vehicle: saline 96 % of control | endpoint: mean survival time, dose: 75.0 mg/kg/injection, schedule: Q01DX009 (ip), vehicle: saline 94 % of control | endpoint: mean survival time, dose: 150.0 mg/kg/injection, schedule: Q01DX001 (ip), vehicle: saline 93 % of control | endpoint: mean survival time, dose: 300.0 mg/kg/injection, schedule: Q01DX001 (ip), vehicle: saline 95 % of control | endpoint: mean survival time, dose: 300.0 mg/kg/injection, schedule: Q01DX009 (ip), vehicle: saline 89 % of control

CCCCNC(c1ccc(C[N+]2(C)CCCC2)cc1)C(Cl)(Cl)Cl (centres undefined)
inactive: [1] 95 % of control | [2] 95 % of control

NOc1ccc([N+](=O)[O-])cc1[N+](=O)[O-]
inactive: endpoint: mean survival time, dose: 100.0 mg/kg/injection, schedule: Q04DX003 (ip), vehicle: saline with Tween-80 108 % of control

COC(=O)/C=C/C(Oc1ccc(C)cc1)C(=O)OC (centres undefined)
inactive: endpoint: mean survival time, dose: 75.0 mg/kg/injection, schedule: Q04DX003 (ip), vehicle: other 98 % of control | endpoint: mean survival time, dose: 150.0 mg/kg/injection, schedule: Q04DX003 (ip), vehicle: other 96 % of control | endpoint: mean survival time, dose: 300.0 mg/kg/injection, schedule: Q04DX003 (ip), vehicle: other 98 % of control

CC1(C)N=C(N)N=C(N)N1c1cccc(OCc2cccc([N+](=O)[O-])c2)c1
inactive: endpoint: mean survival time, dose: 5.0 mg/kg/injection, schedule: Q01DX001 (ip), vehicle: saline 104 % of control | [1] 98 % of control | [2] 110 % of control | endpoint: mean survival time, dose: 40.0 mg/kg/injection, schedule: Q01DX001 (ip), vehicle: saline 89 % of control | [3] 96 % of control

COC1(NC(=O)CCCC(N)C(=O)O)C(=O)N2C(C(=O)O)=C(COC(N)=O)CSC21 (centres undefined)
inactive: endpoint: mean survival time, dose: 100.0 mg/kg/injection, schedule: Q04DX002 (ip), vehicle: saline 103 % of control | endpoint: mean survival time, dose: 200.0 mg/kg/injection, schedule: Q04DX002 (ip), vehicle: saline 122 % of control | endpoint: mean survival time, dose: 400.0 mg/kg/injection, schedule: Q04DX002 (ip), vehicle: saline 107 % of control

COc1ccc(C)cc1NC(=O)Nc1cc([N+](=O)[O-])ccc1C
inactive: endpoint: mean survival time, dose: 100.0 mg/kg/injection, schedule: Q01DX009 (ip), vehicle: Klucel (hydroxypropylcellulose) (HPC) 93 % of control | endpoint: mean survival time, dose: 200.0 mg/kg/injection, schedule: Q01DX009 (ip), vehicle: Klucel (hydroxypropylcellulose) (HPC) 98 % of control | endpoint: mean survival time, dose: 400.0 mg/kg/injection, schedule: Q01DX009 (ip), vehicle: Klucel (hydroxypropylcellulose) (HPC) 102 % of control

[N-]=[N+]=C1N=NC=C1C(N)=O
inactive: endpoint: mean survival time, dose: 50.0 mg/kg/injection, schedule: Q01DX001 (ip), vehicle: saline 98 % of control | [3] 107 % of control | [4] 107 % of control

CCOC(=O)c1cnc(SC)nc1Oc1ccccc1Cl
inactive: endpoint: mean survival time, dose: 100.0 mg/kg/injection, schedule: Q01DX001 (ip), vehicle: saline with Tween-80 96 % of control | endpoint: mean survival time, dose: 100.0 mg/kg/injection, schedule: Q01DX009 (ip), vehicle: saline with Tween-80 98 % of control | endpoint: mean survival time, dose: 200.0 mg/kg/injection, schedule: Q01DX001 (ip), vehicle: saline with Tween-80 97 % of control | endpoint: mean survival time, dose: 200.0 mg/kg/injection, schedule: Q01DX009 (ip), vehicle: saline with Tween-80 96 % of control | endpoint: mean survival time, dose: 400.0 mg/kg/injection, schedule: Q01DX001 (ip), vehicle: saline with Tween-80 97 % of control | endpoint: mean survival time, dose: 400.0 mg/kg/injection, schedule: Q01DX009 (ip), vehicle: saline with Tween-80 93 % of control

O=S(=O)(c1ccccc1)C1C2C=CC(O2)C1S(=O)(=O)c1ccccc1 (centres undefined)
inactive: [5] 91 % of control | [6] 93 % of control | endpoint: mean survival time, dose: 400.0 mg/kg/injection, schedule: Q04DX002 (ip), vehicle: Klucel (hydroxypropylcellulose) (HPC) 93 % of control

CC(C)(C)C(=O)c1nn[nH]n1
inactive: endpoint: mean survival time, dose: 50.0 mg/kg/injection, schedule: Q01DX009 (ip), vehicle: saline 91 % of control | [3] 104 % of control | endpoint: mean survival time, dose: 100.0 mg/kg/injection, schedule: Q01DX009 (ip), vehicle: saline 98 % of control | [4] 102 % of control

COC(=O)c1c2c(c3c(c1C(=O)OC)CCC3)CCC2
inactive: [3] 98 % of control | [4] 95 % of control | endpoint: mean survival time, dose: 400.0 mg/kg/injection, schedule: Q01DX001 (ip), vehicle: saline 92 % of control

C=CCCCCCCCCC(=O)N/N=C/c1ccccc1
inactive: [5] 95 % of control | [6] 100 % of control
